Reference: article PMC7558535, “In Vitro Metabolism of DWP16001, a Novel Sodium-Glucose Cotransporter 2 Inhibitor, in Human and Animal Hepatocytes” (Pharmaceutics, 2020)

Experiments:
Assay type in all cases: in vitro ADME
[1] = tested on: human liver microsomes; assay: Enzyme kinetics of metabolite formation in human liver microsomes
Experimental: (§1) To calculate the enzyme kinetic parameters for the M1 and M2 formation from DWP16001, DWP16001 (final concentrations, 1–200 μM) was incubated with NADPH-generating system, pooled human liver microsomes (0.25 mg/mL), or human cDNA-expressed CYP3A4 or CYP2C19 supersomes (10 pmol) at 37 °C for 30 min in triplicate. Reactions were stopped by addition of 400 μL of ice-cold ketoconazole (200 ng/mL) in acetonitrile. Following vortex-mixing and centrifugation (15,000× g, 8 min, 4 °C), 75 μL aliquots of the supernatant were diluted with 75 µL of 30% acetonitrile; 5 μL aliquots were injected into an LC−MS/MS system.
(§2) Apparent kinetic parameters (Km, Vmax and n) for the formation of M1, M2, and M3 from DWP16001 by human liver microsomes, CYP3A4, or CYP2C19 were calculated as follows: the unweighted formation rates of M1, M2, and M3 over a range of DWP16001 concentrations were fitted to the Hill equation model [V = Vmax × S^n/(Km^n + S^n)] or the single enzyme model [V = Vmax × S/(Km + S)] using Enzyme Kinetics software (version 1.1 SPSS Inc., Chicago, IL, USA). In the above equations, V means the reaction velocity of the formation of M1, M2, and M3 at given concentration [S] of DWP16001, Vmax means the maximum reaction velocity, n means the Hill constant, and Km means the DWP16001 concentration at which the reaction velocity is 50% of Vmax.

[2] = tested on: rat hepatocytes; assay: Metabolic stability in rat hepatocytes
Experimental: (§3) To evaluate the metabolic stability of DWP16001 in human, dog, monkey, mouse, and rat hepatocytes, pooled cryopreserved hepatocytes were carefully thawed in recovery medium and resuspended in incubation medium (Krebs–Henseleit buffer for mouse, rat, and human; William’s E media for dog and monkey) to 0.5 × 10^6 cells/mL for mouse, 0.67 × 10^6 cells/mL for rat, and 1.0 × 10^6 cells/mL for dog, monkey, and human in accordance with the manufacturer’s protocols. Then, 60-μL aliquots of these hepatocyte suspensions and an equal volume of 2 μM DWP16001 in incubation medium were mixed in 96-well plates and incubated in triplicate for 0, 30, 60, 90, 120, 180, or 240 min in a CO2 incubator at 37 °C. Reactions were stopped by addition of 120 µL of ice-cold acetonitrile to each well and the cell suspension was sonicated for 5 min at 4 °C, followed by centrifugation at 15,000× g for 10 min at 4 °C after 5 min of sonication. 80-µL aliquots of the supernatants were then vortex-mixed with 20 μL of ice-cold ketoconazole (an internal standard) in acetonitrile and analyzed by LC–tandem mass spectrometry (LC-MS/MS). The peak area ratios of DWP16001 versus internal standard at each sampling point were used for the subsequent calculation. Elimination parameters, including half-life (t1/2), intrinsic clearance (Clint), and hepatic clearance (Clhep) of DWP16001 in mouse, rat, dog, monkey, and human were calculated by the following equations [19]. (1) t1/2min=ln2/−k elimination slope (2) ClintmL/min/kg=ln2/t1/2×mL incubation/hepatocytes 10^6 cells×B×10^6 cells/g liver×A g liver/kg BW (3) ClhepmL/min/kg=Qh×Clint/Qh+Clint (4) Hepatic extraction ratio = Clhep/Qh
(§4) Here, A has values of 87.5, 40, 32, 32, and 25.7; B has values of 135, 117, 215, 120, and 139; Qh (representing hepatic blood flow) has values of 90, 55.2, 30.9, 43.4, and 20.7 mL/min/kg, for mouse, rat, dog, monkey, and human, respectively. Hepatic extraction ratio values of ≤ 0.25, 0.25–0.75, and ≥ 0.75 were regarded as low, moderate, and high, respectively.

[3] = Metabolic stability in rat hepatocytes; settings: pooled cryopreserved hepatocytes
Experimental: as §3, §4

[4] = molecular target: T1, CYP3A4 (Homo sapiens, UniProt P08684); assay: CYP screening, recombinant CYP3A4
T1 construct: purchased Corning Life Sciences
T1 sequence (P08684 whole entry): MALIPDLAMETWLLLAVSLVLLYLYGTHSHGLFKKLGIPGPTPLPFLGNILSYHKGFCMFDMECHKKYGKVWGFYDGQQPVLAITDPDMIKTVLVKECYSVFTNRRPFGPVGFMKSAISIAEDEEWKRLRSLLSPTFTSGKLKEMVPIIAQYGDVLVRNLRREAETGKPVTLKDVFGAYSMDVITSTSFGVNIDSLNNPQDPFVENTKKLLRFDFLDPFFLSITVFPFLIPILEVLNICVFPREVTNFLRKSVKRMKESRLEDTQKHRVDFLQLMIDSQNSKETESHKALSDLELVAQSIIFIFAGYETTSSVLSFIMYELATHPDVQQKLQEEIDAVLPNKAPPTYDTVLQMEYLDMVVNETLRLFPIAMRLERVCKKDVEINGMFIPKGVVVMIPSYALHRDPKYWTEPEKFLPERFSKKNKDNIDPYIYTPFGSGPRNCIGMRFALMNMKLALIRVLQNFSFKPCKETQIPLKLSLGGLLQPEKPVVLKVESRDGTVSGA
Experimental: DWP16001, M1, or M2 was incubated with 11 human cDNA-expressed CYP enzymes (1A1, 1A2, 2A6, 2B6, 2C8, 2C9, 2C19, 2D6, 2E1, 3A4, and 3A5) to identify the CYP enzymes involved in the metabolism of DWP16001. Reaction mixtures of 95 µL containing DWP16001 (final concentration: 5 µM), M1 or M2 (final concentration: 10 µM), and CYPs (final amount: 10 pmol) were prepared in 0.1 M potassium phosphate buffer (pH 7.4). The reaction was started by adding 5 µL of NADPH-generating system; the mixtures were incubated for 30 min at 37 °C in triplicate. Reactions were stopped by the addition of 400 µL of ice-cold ketoconazole (internal standard, 200 ng/mL) in ice-cold acetonitrile. Samples were centrifuged at 15,000× g for 8 min at 4 °C. Seventy-five microliter aliquots of the supernatants were diluted with 75 µL of deionized water and analyzed using an LC–MS/MS system.

[5] = Metabolic stability in monkey hepatocytes; settings: pooled cryopreserved hepatocytes, monkey hepatocytes
Experimental: as §3, §4

[6] = tested on: monkey hepatocytes; assay: Metabolic stability in monkey hepatocytes
Experimental: as §3, §4

[7] = molecular target: T2, CYP2C19 (Homo sapiens, UniProt P33261); assay: Enzyme kinetics of metabolite formation in cDNA-expressed CYP2C19 supersomes
T2 construct: purchased Corning Life Sciences
T2 sequence (P33261 whole entry): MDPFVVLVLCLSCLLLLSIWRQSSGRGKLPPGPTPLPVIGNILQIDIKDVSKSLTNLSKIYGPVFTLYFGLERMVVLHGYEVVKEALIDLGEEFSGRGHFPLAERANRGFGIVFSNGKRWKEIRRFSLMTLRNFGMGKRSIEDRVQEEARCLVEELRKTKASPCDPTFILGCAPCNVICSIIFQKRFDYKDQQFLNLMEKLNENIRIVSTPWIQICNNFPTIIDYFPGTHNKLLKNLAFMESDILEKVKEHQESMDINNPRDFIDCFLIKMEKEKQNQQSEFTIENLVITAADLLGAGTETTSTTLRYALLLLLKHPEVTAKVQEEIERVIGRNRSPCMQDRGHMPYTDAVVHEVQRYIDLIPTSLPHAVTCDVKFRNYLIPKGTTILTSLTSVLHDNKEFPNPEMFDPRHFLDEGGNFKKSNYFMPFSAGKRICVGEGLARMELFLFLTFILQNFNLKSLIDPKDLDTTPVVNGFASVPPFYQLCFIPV
Experimental: as §1, §2

[8] = tested on: 13 human UGT enzymes; assay: UGT screening, whole panel; settings: incubation of DWP16001 with 13 human UGT enzymes, UDPGA
Experimental: To screen for UGT enzymes responsible for glucuronidation of DWP16001, 100 μL of reaction mixtures containing 13 human cDNA-expressed UGT enzymes (1A1, 1A3, 1A4, 1A6, 1A7, 1A8, 1A9, 1A10, 2B4, 2B7, 2B10, 2B15, and 2B17) at 0.1 mg protein/mL, 5 mM UDPGA, 0.025 mg/mL alamethicin, and 25 μM DWP16001 or M1 in 50 mM Tris buffer (pH 7.4) were incubated at 37 °C for 30 min in triplicate. Reactions were stopped by adding 100 μL of ketoconazole (internal standard, 200 ng/mL) in acetonitrile, followed by vortex-mixing and centrifugation (15,000× g, 8 min, 4 °C). The supernatant (75 μL) was diluted with equal volume of 30% acetonitrile and aliquots (5 μL) were injected into an LC-MS/MS system.

[9] = CYP2C19 supersomes, kinetic model fitted

OC[C@H]1O[C@@H](c2cc(Cc3ccc(C4CC4)cc3)c(Cl)c3c2CCO3)[C@H](O)[C@@H](O)[C@@H]1O [DWP16001, (2S,3R,4R,5S,6R)-2-(7-chloro-6-(4-cyclopropylbenzyl)-2,3-dihydrobenzofuran-4-yl)-6-(hydroxymethyl)tetrahydro-2H-pyran-3,4,5-triol]
M1 Formation Vmax ([1]; HLM): 980.3 pmol/min/mg protein
M1 Formation n (hill coefficient) ([1]; HLM): 0.9176
M2 Formation Vmax ([1]; HLM): 82.8 pmol/min/mg protein
M2 Formation n (hill coefficient) ([1]; HLM): 0.9773
M1 Formation Mode ([1]; HLM, kinetic model fitted): Hill
M2 Formation Mode ([1]; HLM, kinetic model fitted): Hill
M3 formation from DWP16001 in enzyme kinetic analysis ([1]; human liver microsomes): not detected
Hepatic extraction ratio [2]: 0.15
Hepatic extraction ratio class [2]: low (Hepatic extraction ratio values of ≤ 0.25)
Clhep ([2]; well-stirred model): 8.3 mL/min/kg
CLint scaled at 1 μM [3]: 9.8 mL/min/kg
half-life at 1 μM ([3]; 37 °C, 0-240 min): 16.5 h
Substrate of CYP3A4 [4]: substrate
CLint scaled at 1 μM [5]: 32.3 mL/min/kg
half-life at 1 μM ([5]; 37 °C, 0-240 min): 2.75 h
Hepatic extraction ratio class ([6]; monkey): moderate (0.25–0.75)
Hepatic extraction ratio ([6]; monkey hepatocytes): 0.43
Clhep ([6]; monkey hepatocytes, well-stirred model): 18.5 mL/min/kg
M3 formation from DWP16001 in enzyme kinetic analysis ([7]; CYP2C19): not detected
M1 Formation Mode [7, 9]: Single enzyme
M2 Formation Mode [7, 9]: Hill
Formation of U3 from DWP16001 [8]: not formed
